Values quoted from earlier work, collected in EP3277282B1 (Istanbul Universitesi Rektorlugu, priority 2015, dated 2016).

Key:
[1] = given to human by oral route

solubility in ethanol, methanol and organic solvents: soluble
SMILES: Cc1nc(Nc2ncc(C(=O)Nc3c(C)cccc3Cl)s2)cc(N2CCN(CCO)CC2)n1 [Dasatinib, N-(2-chloro-6-methylphenyl)-2-[[6-[4-(2-hydroxyethyl)-1-piperazinyl]-2-methyl]-4-pyrimidinyl]amino]-5-thiazolecarboxamide mono-hydrate]
systemic side effects [1]: bleeding in the intestines
